This is an account of results in US7803818B2, “Amorphous form of 1,2-dihydropyridine compound” (Eisai R&D Management Co., Ltd., priority 2005, dated 2010).

A short description of data set [1]: Solubility in JP2 fluid after shaking 5 minutes (shake flask method). The data set is classed as physicochemical. The settings on record: for Concentration (solubility in JP2 fluid after shaking 5 minutes): JP2 fluid pH 6.8, about 5 mg in 5 mL, shaking 5 minutes at room temperature, filtration, HPLC. The protocol:
Measurement of Solubility in JP2 Fluid after Shaking 5 minutes (Shake Flask Method)
Sample solutions were prepared by placing each sample (about 5 mg) in test tube, adding 5 mL of “2nd fluid” as described in General Tests (disintegration test) of Japanese Pharmacopeia (JP2 fluid: pH 6.8), and shaking 5 minutes at room temperature, followed by filtration. These sample solutions were analyzed using high performance liquid chromatography (HPLC), and calculated the concentration.
HPLC System: LC-10AT System (from Shimadzu Corporation)
Detector: ultraviolet absorptiometer (wavelength: 290 nm)
Column: YMC Pack Pro C18, 4.6 mm I.D.×150 mm (from YMC, Japan)
Column temperature: 35° C.
Auto sampler temperature: 25° C.
A: water/acetonitrile/ammonium acetate (900:100:1, v/v/w)
B: water/acetonitrile/ammonium acetate (100:900:1, v/v/w)
(Isocratic Condition: B Concentration=40%)

Data set [2] has as its system AMPA receptor. Particulars: see Patent Document 1 (WO/JP01/96308); cited from earlier work.

As for `N#Cc1ccccc1-c1cc(-c2ccccn2)cn(-c2ccccc2)c1=O` [Example 1], the “solubility in a solution such as JP2 fluid” value in data set [1] (JP2 fluid (2nd fluid of Disintegration Test, Japanese pharmacopoeia)) is recorded as “excellent solubility”. Also, in data set [1], the “Concentration (solubility in JP2 fluid after shaking 5 minutes)” value worked out at 12.5 µg/mL.
Consider `N#Cc1ccccc1-c1cc(-c2ccccn2)cn(-c2ccccc2)c1=O` [Reference Example 1, 3-(2-cyanophenyl)-5-(2-pyridyl)-1-phenyl-1,2-dihydropyridin-2-one, reference compound], for which the “Concentration (solubility in JP2 fluid after shaking 5 minutes)” value in data set [1] stood at 4.8 µg/mL.
For the molecule `N#Cc1ccccc1-c1cc(-c2ccccn2)cn(-c2ccccc2)c1=O` [compound (1), 3-(2-cyanophenyl)-5-(2-pyridyl)-1-phenyl-1,2-dihydropyridin-2-one], the “antagonistic action against AMPA receptor” value in data set [2] is “significant antagonistic action”.
